Data from BigSolDB 2.1.

O=C(O)/C=C/C(=O)O
solubility (mole fraction)
Conditions | in acetone | in ethanol | in isopropanol | in n-propanol | in water
279 K | 0.00344 | 0.0126 | 0.0109 | 0.00847 | 0.000136
285 K | 0.00419 | 0.014 | 0.0138 | 0.0103 | 0.000435
291 K | 0.00498 | 0.0157 | 0.0169 | 0.0122 | 0.000813
297 K | 0.00583 | 0.0178 | 0.0202 | 0.0143 | 0.00125
303 K | 0.00673 | 0.0205 | 0.0236 | 0.0165 | 0.00171
309 K | 0.00768 | 0.0233 | 0.0272 | 0.0189 | 0.00221
315 K | 0.00867 | 0.0267 | 0.031 | 0.0215 | 0.00265
321 K | 0.00972 | 0.0305 | 0.0349 | 0.0243 | 0.00328
327 K | 0.0108 | 0.0344 | 0.0391 | 0.0274 | 0.00415
333 K | 0.012 | 0.0383 | 0.0435 | 0.0306 | 0.00541
339 K | – | – | – | 0.0355 | 0.00624
342 K | – | – | 0.0538 | – | –
343 K | – | 0.0451 | – | – | –
345 K | – | – | – | 0.0398 | –
351 K | – | – | 0.0656 | – | –
351.8 K | – | – | – | 0.0486 | –
353 K | – | – | – | – | 0.00884
